Measurements: the supplement of paper PMC10307832

Columns and labels:
Test in all cases: relative viability (nuclei count vs DMSO), 5 days (fraction); higher = more cells survive
A-427 = system: A-427
In short: (§1)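 Lung cancer cell lines, seeded in 1536-well plates, were treated the following day by pin tool with a single drug or with five library-drug doses (not always all listed) in √10 steps on top of a fixed anchor-drug dose. Cells were fixed and nuclei stained in one step after 5 days, and nuclei were counted. Relative viability is the nuclei count for treated wells divided by that for vehicle wells, reported as medians of duplicate plates.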

COR-L23 = system: COR-L23
In short: as §1

ChaGo-K-1 = system: ChaGo-K-1
In short: as §1

EKVX = system: EKVX
In short: as §1

EPLC-272H = system: EPLC-272H
In short: as §1

HCC-366 = system: HCC-366
In short: as §1

HCC-44 = system: HCC-44
In short: as §1

HCC-78 = system: HCC-78
In short: as §1

HOP-62 = system: HOP-62
In short: as §1

LOU-NH91 = system: LOU-NH91
In short: as §1

NCI-H1395 = system: NCI-H1395
In short: as §1

Question: Which relative viability (A-427; first compound 5 µM) does the source give for O=C(O)CCCCC(CCSCc1ccccc1)SCc1ccccc1 (centres undefined) [CPI-613] + CC(=O)c1c(C)c2cnc(Nc3ccc(N4CCNCC4)cn3)nc2n(C2CCCC2)c1=O [Palbociclib] (partner 0.5 µM) here?
Answer: Its relative viability is 0.519.

Question: What about the relative viability (A-427; first compound 15.81 µM) of the same molecule?
Answer: The relative viability was 0.477.

Question: What about the relative viability (A-427; first compound 50 µM) of the same molecule?
Answer: Its relative viability is 0.486.

Question: What about the relative viability (A-427; first compound 158.11 µM) of the same molecule?
Answer: The relative viability was 0.332.

Question: And the relative viability (A-427; first compound 500 µM)?
Answer: Its relative viability is 0.384.

Question: And the relative viability (COR-L23; first compound 5 µM)?
Answer: The relative viability was 0.285.

Question: What about the relative viability (COR-L23; first compound 15.81 µM) of the same molecule?
Answer: The relative viability was 0.321.

Question: And the relative viability (COR-L23; first compound 50 µM)?
Answer: Its relative viability is 0.324.

Question: What about the relative viability (COR-L23; first compound 158.11 µM) of the same molecule?
Answer: Its relative viability is 0.11.

Question: And the relative viability (COR-L23; first compound 500 µM)?
Answer: Its relative viability is 0.0343.

Question: And the relative viability (ChaGo-K-1; first compound 5 µM)?
Answer: Its relative viability is 0.868.

Question: And the relative viability (ChaGo-K-1; first compound 15.81 µM)?
Answer: The relative viability was 0.902.

Question: And the relative viability (ChaGo-K-1; first compound 50 µM)?
Answer: Its relative viability is 0.842.

Question: And the relative viability (ChaGo-K-1; first compound 158.11 µM)?
Answer: The relative viability was 0.339.

Question: And the relative viability (ChaGo-K-1; first compound 500 µM)?
Answer: The relative viability was 0.419.

Question: What about the relative viability (EKVX; first compound 5 µM) of the same molecule?
Answer: Its relative viability is 0.372.

Question: And the relative viability (EKVX; first compound 15.81 µM)?
Answer: Its relative viability is 0.449.

Question: And the relative viability (EKVX; first compound 50 µM)?
Answer: Its relative viability is 0.404.

Question: And the relative viability (EKVX; first compound 500 µM)?
Answer: Its relative viability is 0.378.

Question: And the relative viability (EPLC-272H; first compound 5 µM)?
Answer: The relative viability was 0.348.

Question: And the relative viability (EPLC-272H; first compound 15.81 µM)?
Answer: Its relative viability is 0.315.

Question: And the relative viability (EPLC-272H; first compound 50 µM)?
Answer: The relative viability was 0.306.

Question: What about the relative viability (EPLC-272H; first compound 158.11 µM) of the same molecule?
Answer: The relative viability was 0.316.

Question: What about the relative viability (EPLC-272H; first compound 500 µM) of the same molecule?
Answer: The relative viability was 0.259.

Question: What about the relative viability (HCC-366; first compound 5 µM) of the same molecule?
Answer: The relative viability was 0.354.

Question: What about the relative viability (HCC-366; first compound 15.81 µM) of the same molecule?
Answer: The relative viability was 0.322.

Question: What about the relative viability (HCC-366; first compound 50 µM) of the same molecule?
Answer: Its relative viability is 0.336.

Question: What about the relative viability (HCC-366; first compound 158.11 µM) of the same molecule?
Answer: The relative viability was 0.0258.

Question: And the relative viability (HCC-366; first compound 500 µM)?
Answer: The relative viability was 0.006.

Question: And the relative viability (HCC-44; first compound 5 µM)?
Answer: Its relative viability is 0.959.

Question: What about the relative viability (HCC-44; first compound 15.81 µM) of the same molecule?
Answer: The relative viability was 0.954.

Question: What about the relative viability (HCC-44; first compound 50 µM) of the same molecule?
Answer: Its relative viability is 1.04.

Question: What about the relative viability (HCC-44; first compound 158.11 µM) of the same molecule?
Answer: Its relative viability is 0.6.

Question: What about the relative viability (HCC-44; first compound 500 µM) of the same molecule?
Answer: The relative viability was 0.606.

Question: And the relative viability (HCC-78; first compound 5 µM)?
Answer: Its relative viability is 0.462.

Question: What about the relative viability (HCC-78; first compound 15.81 µM) of the same molecule?
Answer: The relative viability was 0.527.

Question: What about the relative viability (HCC-78; first compound 50 µM) of the same molecule?
Answer: The relative viability was 0.473.

Question: And the relative viability (HCC-78; first compound 158.11 µM)?
Answer: The relative viability was 0.447.

Question: What about the relative viability (HCC-78; first compound 500 µM) of the same molecule?
Answer: Its relative viability is 0.427.

Question: What about the relative viability (HOP-62; first compound 5 µM) of the same molecule?
Answer: Its relative viability is 0.437.

Question: And the relative viability (HOP-62; first compound 15.81 µM)?
Answer: The relative viability was 0.45.

Question: And the relative viability (HOP-62; first compound 50 µM)?
Answer: The relative viability was 0.427.

Question: And the relative viability (HOP-62; first compound 158.11 µM)?
Answer: The relative viability was 0.186.

Question: And the relative viability (HOP-62; first compound 500 µM)?
Answer: Its relative viability is 0.126.

Question: What about the relative viability (LOU-NH91; first compound 5 µM) of the same molecule?
Answer: Its relative viability is 0.506.

Question: What about the relative viability (LOU-NH91; first compound 15.81 µM) of the same molecule?
Answer: Its relative viability is 0.548.

Question: And the relative viability (LOU-NH91; first compound 50 µM)?
Answer: The relative viability was 0.522.

Question: And the relative viability (LOU-NH91; first compound 158.11 µM)?
Answer: The relative viability was 0.402.

Question: And the relative viability (LOU-NH91; first compound 500 µM)?
Answer: The relative viability was 0.435.

Question: What about the relative viability (NCI-H1395; first compound 5 µM) of the same molecule?
Answer: The relative viability was 0.619.

Question: What about the relative viability (NCI-H1395; first compound 15.81 µM) of the same molecule?
Answer: The relative viability was 0.641.

Question: And the relative viability (NCI-H1395; first compound 50 µM)?
Answer: Its relative viability is 0.601.

Question: What about the relative viability (NCI-H1395; first compound 158.11 µM) of the same molecule?
Answer: Its relative viability is 0.57.

Question: And the relative viability (NCI-H1395; first compound 500 µM)?
Answer: The relative viability was 0.486.
